# Measured values taken from patent US20090232912A1, “Method For Preparing Extract For The Prevention and Treatment Of Hyperlipidemia and Obesity From the Extract of Aster Spathulifolius Aerial Part and Composition Containing The Same” (priority 2005, published 2009).
# Marks after values point to notes of the source that are not given here.
# What was measured:
# Format in all cases: in vivo, rat (Sprague-Dawley male)
# rats fed high fat diet [1] = assay: Experiment 4: body weight, food intake and food efficiency ratio of rats fed high fat diet; conditions: Exp.4 HFD rats; orally once a day 6 weeks; AE-B 125, AE-C 100, AE-1 10, ABP 1.5 mg/kg
# Description: (§1) The rats, aged 6 week-old and weighing 170˜180 g Sprague-Dawley male, were purchased from Samtaco (Seoul, Korea). After the animals were given a standard laboratory diet for 1 week, they were divided two groups each group. Rats were fed two diets: the normal diet (ND, n=10) group and high fat diet (HFD, n=50) group. 6 weeks later, HFD group were subdivided five groups. They were administrated with extract of Aster spathulifolius aerial part orally once a day for 6 weeks.
# HFD group: High fat diet+0.5% carboxymethycelluose
# HFD+AE-B group: High fat diet+AE-B 125 mg/kg
# HFD+AE-C group: High fat diet+AE-C 100 mg/kg
# HFD+AE-1 group: High fat diet+AE-110 mg/kg
# HFD+ABP group: High fat diet+ABP 1.5 mg/kg
# (§2) The experimental diets contain either a normal fat (11.7% of calories as fat, AIN-76A diet # 100000, Dyets Inc., Bethlehem, Pa., USA) or a high fat (40% of calories as fat, AIN-76A high fat diet # 100496, Dyets Inc., Bethlehem, Pa., USA) (Table 1). During the test period, food intake and body weight were measured twice a week. Food efficiency ratio was calculated by dividing the increase in body weight during the test period by the food intake during the period.
# rats fed high fat diet [2] = assay: Experiment 4: white adipocyte size and adipose tissue weights; conditions: Exp.4 HFD rats; after 12 weeks; AE-B 125, AE-C 100, AE-1 10, ABP 1.5 mg/kg once a day 6 weeks
# Description: as §1
# A is ND Group, B is HFD-C group, C is HFD+AE-B group, D is HFD+AE-C group, E is HFD+AE-1 group and F is HFD+ABP group.
# (§3) After 12 weeks, rats were anesthetized with ether and sacrificed after 14 h of fasting. Blood samples were collected from hepatic vein and centrifuged (3,000 rpm for 10 min at 4° C.). Serum was frozen at −70° C. for the biochemical analysis. The epididymal and abdominal fat pad were immediately weighed, measured size of adipocyte using microscope.
# rats fed high fat diet [3] = assay: Experiment 4: hepatic lipids (TG, TC, FFA); conditions: Exp.4 HFD rats; AE-B 125, AE-C 100, AE-1 10, ABP 1.5 mg/kg once a day 6 weeks
# Description: as §1
# (§4) Hepatic lipid was extracted by the method devised by Folch et al. and its content was measured by the same technique used for the serum analysis. […] There was no significant difference in hepatic free fatty acid (FFA) level.
# rats fed high fat diet [4] = assay: Experiment 4: serum leptin, insulin and glucose; conditions: Exp.4 HFD rats; AE-B 125, AE-C 100, AE-1 10, ABP 1.5 mg/kg once a day 6 weeks
# Description: as §1, §3
# (§5) Serum leptin and insulin was measured by RIA using Linco leptin assay kit (Linco research Immunoassay, St. Louis, Mo.) and insulin standards (Linco research Immunoassay, St. Louis, Mo.) respectively (FIG. 5).
# rats fed high fat diet [5] = assay: Experiment 5: food intake, change of body weights and food efficiency ratio; conditions: Exp.5 HFD rats
# Experimental: as §2
# as §1, with “n=8)” for “n=10)”, “n=88)” for “n=50)”, “11 groups (n=8).” for “five groups.”, “weeks. […]” for “weeks.”
# AE-1 20 group: High fat diet+AE-1 (Germacrone) 20 mg/kg
# AE-1 10 group: High fat diet+AE-1(Germacrone) 10 mg/kg
# AE-1 5 group: High fat diet+AE-1 (Germacrone) 5 mg/kg […]
# Experimental diet is same table 1 of experiment 4. Food intake, change of body weights and food efficiency ratio were shown Table 6.
# rats fed high fat diet [6] = assay: Experiment 5: adipocyte (fat) weight; conditions: Exp.5 HFD rats
# Experimental: as §3
# as §1, with “n=8)” for “n=10)”, “n=88)” for “n=50)”, “11 groups (n=8).” for “five groups.”
# Adipocyte weight were determined method of experiment 5. EASA treated groups reduced white adipocyte versus the HFD group, in a dose-dependent manner.
# rats fed high fat diet [7] = assay: Experiment 5: levels of lipid in serum; conditions: Exp.5 HFD rats
# Experimental: Serum triglyceride (TG), total cholesterol (TC), and HDL-cholesterol (HDL-C) levels were determined using the calorimetric method with commercial kits (Asan Diagnostics, Seoul, Korea). There was no significant difference in serum TG or HDL-C levels, although EASA-treated groups tended to be lower than the HFD-C group (FIG. 4).
# as §1, with “n=8)” for “n=10)”, “n=88)” for “n=50)”, “11 groups (n=8).” for “five groups.”
# In levels of TG, the HFD groups had similar values to the ND group. EASA treated groups reduced the levels of TG versus the HFD group. […] EASA treated groups reduced the levels of TC versus the HFD and ND group.
# rats fed high fat diet [8] = assay: Experiment 5: levels of lipid in liver; conditions: Exp.5 HFD rats
# Experimental: as §4
# as §1, with “n=8)” for “n=10)”, “n=88)” for “n=50)”, “11 groups (n=8).” for “five groups.”
# rats fed high fat diet [9] = assay: Experiment 5: serum levels of leptin and insulin; conditions: Exp.5 HFD rats
# Experimental: as §5
# as §1, with “n=8)” for “n=10)”, “n=88)” for “n=50)”, “11 groups (n=8).” for “five groups.”
# Serum leptin and insulin level was measured in the same manner as in Test Example 4. Leptin is a hormone secreted from the adipocyte, in proportion to body fat mass. Leptin and insulin are deeply related with energy homeostasis. Increased leptin induces hyperinsulinemia, which in turn directly stimulates the leptin mRNA in the adipocyte.
# [10] = AE-1 5 mg/kg orally once a day 6 weeks
# [11] = AE-1 10 mg/kg orally once a day 6 weeks
# [12] = AE-1 20 mg/kg orally once a day 6 weeks
compound,measurement,setting,value
"CC(C)=C1C/C=C(\C)CC/C=C(\C)CC1=O [AE-1, Germacron]",12 wk B.W,rats fed high fat diet [1],504.40 ± 28.37^b g
same,FER (food efficiency ratio),rats fed high fat diet [1],0.137 ± 0.013^b
same,Food intake,rats fed high fat diet [1],25.82 ± 2.91 g/day
same,Abdominal fat pad,rats fed high fat diet [2],14.18 ± 4.67^b g
same,Epididymal fat pad,rats fed high fat diet [2],10.21 ± 2.69^b g
same,FFA (hepatic),rats fed high fat diet [3],0.869 ± 0.25 meq/l
same,TC (hepatic),rats fed high fat diet [3],13.74 ± 0.92^c mg/g liver
same,TG (hepatic),rats fed high fat diet [3],2.20 ± 0.52^b mg/g liver
same,Glucose (serum),rats fed high fat diet [4],206.60 ± 42.07^ab mg/dl
same,Insulin (serum),rats fed high fat diet [4],1.00 ± 0.27^bc ng/ml
same,Leptin (serum),rats fed high fat diet [4],3.88 ± 1.01^b ng/ml
same,12 wk B.W,rats fed high fat diet [5]; [10],501.71 ± 46.64^b g
same,FER (food efficiency ratio),rats fed high fat diet [5]; [10],0.196 ± 0.029^b
same,Food intake,rats fed high fat diet [5]; [10],17.89 ± 2.97 g/day
same,12 wk B.W,rats fed high fat diet [5]; [11],494.75 ± 45.52^b g
same,FER (food efficiency ratio),rats fed high fat diet [5]; [11],0.189 ± 0.026^b
same,Food intake,rats fed high fat diet [5]; [11],18.24 ± 2.93 g/day
same,12 wk B.W,rats fed high fat diet [5]; [12],490.75 ± 18.27^b g
same,FER (food efficiency ratio),rats fed high fat diet [5]; [12],0.194 ± 0.010^b
same,Food intake,rats fed high fat diet [5]; [12],17.48 ± 2.83 g/day
same,Abdominal fat,rats fed high fat diet [6]; [10],14.50 ± 4.43^ab g
same,Epididymal fat,rats fed high fat diet [6]; [10],11.15 ± 2.39^ab g
same,Total fat,rats fed high fat diet [6]; [10],31.09 ± 8.02^b g
same,Visceral fat,rats fed high fat diet [6]; [10],5.45 ± 2.13^b g
same,Abdominal fat,rats fed high fat diet [6]; [11],14.60 ± 2.20^ab g
same,Epididymal fat,rats fed high fat diet [6]; [11],9.97 ± 2.85^b g
same,Total fat,rats fed high fat diet [6]; [11],29.55 ± 5.25^b g
same,Visceral fat,rats fed high fat diet [6]; [11],4.98 ± 1.53^b g
same,Abdominal fat,rats fed high fat diet [6]; [12],13.76 ± 3.11^ab g
same,Epididymal fat,rats fed high fat diet [6]; [12],11.05 ± 1.44^b g
same,Total fat,rats fed high fat diet [6]; [12],29.49 ± 5.26^b g
same,Visceral fat,rats fed high fat diet [6]; [12],4.68 ± 1.78^b g
same,HDL-cholesterol (serum),rats fed high fat diet [7]; [10],48.39 ± 9.65 mg/dL
same,Total cholesterol (serum),rats fed high fat diet [7]; [10],51.93 ± 10.29^c mg/dl
same,Triglyceride (serum),rats fed high fat diet [7]; [10],91.51 ± 20.50^ab mg/dl
same,HDL-cholesterol (serum),rats fed high fat diet [7]; [11],42.41 ± 8.41 mg/dL
same,Total cholesterol (serum),rats fed high fat diet [7]; [11],62.56 ± 8.33^c mg/dl
same,Triglyceride (serum),rats fed high fat diet [7]; [11],86.94 ± 21.93^ab mg/dl
same,HDL-cholesterol (serum),rats fed high fat diet [7]; [12],55.80 ± 19.57 mg/dL
same,Total cholesterol (serum),rats fed high fat diet [7]; [12],51.91 ± 14.32^c mg/dl
same,Triglyceride (serum),rats fed high fat diet [7]; [12],91.12 ± 24.03^ab mg/dl
same,FFA (liver),rats fed high fat diet [8]; [10],0.868 ± 0.28 meq/l
same,TC (liver),rats fed high fat diet [8]; [10],12.81 ± 1.20^bcd mg/g liver
same,TG (liver),rats fed high fat diet [8]; [10],1.95 ± 0.46^b mg/g liver
same,FFA (liver),rats fed high fat diet [8]; [11],0.831 ± 0.30 meq/l
same,TC (liver),rats fed high fat diet [8]; [11],12.84 ± 1.71^bcd mg/g liver
same,TG (liver),rats fed high fat diet [8]; [11],1.81 ± 1.32^b mg/g liver
same,FFA (liver),rats fed high fat diet [8]; [12],0.775 ± 0.25 meq/l
same,TC (liver),rats fed high fat diet [8]; [12],12.14 ± 1.76^cd mg/g liver
same,TG (liver),rats fed high fat diet [8]; [12],1.88 ± 0.55^b mg/g liver
same,Insulin (serum),rats fed high fat diet [9]; [10],1.35 ± 0.28^bc ng/ml
same,Leptin (serum),rats fed high fat diet [9]; [10],7.63 ± 1.69^b ng/ml
same,Insulin (serum),rats fed high fat diet [9]; [11],1.06 ± 0.40^bc ng/ml
same,Leptin (serum),rats fed high fat diet [9]; [11],6.55 ± 6.28^bc ng/ml
same,Insulin (serum),rats fed high fat diet [9]; [12],0.98 ± 0.21^b ng/ml
same,Leptin (serum),rats fed high fat diet [9]; [12],6.70 ± 2.58^b ng/ml
"CC(C)CC(N(C)C)C1(c2ccc(Cl)cc2)CCC1 (stereo not drawn) [Sibutramine, reference compound]",12 wk B.W,"rats fed high fat diet [5]; Sibutramine 7.5 mg/kg, 6 weeks",462.00 ± 44.93^bc g
same,FER (food efficiency ratio),"rats fed high fat diet [5]; Sibutramine 7.5 mg/kg, 6 weeks",0.183 ± 0.028^b
same,Food intake,"rats fed high fat diet [5]; Sibutramine 7.5 mg/kg, 6 weeks",16.70 ± 2.68 g/day
same,Abdominal fat,"rats fed high fat diet [6]; Sibutramine 7.5 mg/kg, 6 weeks",11.44 ± 3.16^b g
same,Epididymal fat,"rats fed high fat diet [6]; Sibutramine 7.5 mg/kg, 6 weeks",8.75 ± 2.57^bc g
same,Total fat,"rats fed high fat diet [6]; Sibutramine 7.5 mg/kg, 6 weeks",25.30 ± 5.77^b g
same,Visceral fat,"rats fed high fat diet [6]; Sibutramine 7.5 mg/kg, 6 weeks",5.11 ± 0.89^b g
same,HDL-cholesterol (serum),"rats fed high fat diet [7]; Sibutramine 7.5 mg/kg, 6 weeks",46.62 ± 12.21 mg/dL
same,Total cholesterol (serum),"rats fed high fat diet [7]; Sibutramine 7.5 mg/kg, 6 weeks",59.79 ± 19.99^c mg/dl
same,Triglyceride (serum),"rats fed high fat diet [7]; Sibutramine 7.5 mg/kg, 6 weeks",82.62 ± 26.39^ab mg/dl
same,FFA (liver),"rats fed high fat diet [8]; Sibutramine 7.5 mg/kg, 6 weeks",0.871 ± 0.68 meq/l
same,TC (liver),"rats fed high fat diet [8]; Sibutramine 7.5 mg/kg, 6 weeks",13.52 ± 2.15^bc mg/g liver
same,TG (liver),"rats fed high fat diet [8]; Sibutramine 7.5 mg/kg, 6 weeks",1.84 ± 0.21^b mg/g liver
same,Insulin (serum),"rats fed high fat diet [9]; Sibutramine 7.5 mg/kg, 6 weeks",1.02 ± 0.33^bc ng/ml
same,Leptin (serum),"rats fed high fat diet [9]; Sibutramine 7.5 mg/kg, 6 weeks",6.27 ± 1.89^bc ng/ml
"CC[C@H](/C=C/[C@@H](C)[C@H]1CC[C@H]2C3=CC[C@H]4C[C@@H](O[C@@H]5O[C@H](CO)[C@@H](O)[C@H](O)[C@H]5O)CC[C@]4(C)[C@H]3CC[C@]12C)C(C)C [ABP, α-Spinasterol 3-O-β-D-glucopyranoide]",12 wk B.W,rats fed high fat diet [1],509.20 ± 39.54^ab g
same,FER (food efficiency ratio),rats fed high fat diet [1],0.139 ± 0.018^b
same,Food intake,rats fed high fat diet [1],26.00 ± 3.64 g/day
same,Abdominal fat pad,rats fed high fat diet [2],14.98 ± 3.19^b g
same,Epididymal fat pad,rats fed high fat diet [2],11.55 ± 1.96^ab g
same,FFA (hepatic),rats fed high fat diet [3],1.018 ± 0.25 meq/l
same,TC (hepatic),rats fed high fat diet [3],17.59 ± 2.79^b mg/g liver
same,TG (hepatic),rats fed high fat diet [3],2.65 ± 0.48^b mg/g liver
same,Insulin (serum),rats fed high fat diet [4],1.21 ± 0.60^bc ng/ml
same,Leptin (serum),rats fed high fat diet [4],3.98 ± 0.95^b ng/ml
